# Results reported in patent US20250161255A1, “NEW THERAPY AND PREVENTION FOR SUPPRESSING AGING-RELATED DISORDERS INCLUDING SARCOPENIA” (priority 2022, published 2025).
# Where a name gives a salt, the structure may show the parent alone.
# Experiments:
# [1] = Body weight and behaviour observed during the administration period; assay type: in vivo, mouse
# Protocol: L-ethylcysteine hydrochloride was orally administered to aged mice from 40 to 79 weeks of age. The dose was 1000 mg/kg/day.
# Ambroxol hydrochloride was orally administered to aged mice from 50 to 77 weeks of age. The dose was 9.21 mg/kg/day.
# [2] = tested on: model mice (C57BL/6J); assay: Grip test with muscle strength measuring device (MK-380S); assay type: in vivo, mouse; conditions: oral 1000 mg/kg/day from 50 to 81 weeks of age; FIG. 19
# Protocol: (§1) Grip strength was evaluated by means of a measurement of grip strength called the grip test, using a muscle strength measuring device (Muromachi Kikai, MK-380S). Specifically, the mouse was made to grasp a mesh made of wire (wire mesh) with its front and back legs, and its tail was pulled back horizontally little by little until the mouse released the wire mesh. The maximum muscle strength at that time was measured.
# [3] = tested on: model mice (C57BL/6J); assay: Frailty index test; assay type: in vivo, mouse
# Protocol: The above model mice were orally administered 1000 mg/kg/day of ambroxol hydrochloride from 50 to 81 weeks of age, and frailty associated with aging was confirmed by means of a frailty index test. The evaluated items of the frailty index test are as follows, and an evaluation standard in accordance with clinical symptoms (0=no symptoms, 0.5=mild symptoms, 1=severe symptoms) was employed. • Hair, skin • Alopecia Whether there is hair loss • Loss of fur color Change in fur color from black to gray, brown, or white • Dermatitis Whether there is skin inflammation • Loss of whiskers Loss of hair and whiskers around nose • Coat condition Condition of coat, smoothness and shine of fur • Physical/musculoskeletal • Tumors Presence/absence of tumor • Distended abdomen Abdomen enlarged compared to surrounding • Kyphosis Check by stroking back • Tail stiffening Whether tail wraps freely when stroked, stiffness • Gait disorder Difficulty in walking, wide stance • Tremor Whether there are age-related tremors • Forelimb grip strength Strength of grip on wire mesh when pulled by the tail • Body condition score Check visual signs of bony protuberance, muscle wasting, obesity • Vestibulocochlear/auditory • Vestibular disturbance Balance, orientation, acceleration • Hearing loss Whether there is response when clicker is sounded from behind • Ocular/nasal • Cataracts Clouding of lens of eye • Corneal opacity Cloudy cornea • Eye discharge/swelling Eyes swollen, abnormal secretions or crusting • Microphthalmia One or both eyes are small and/or sunken • Vision loss Whether the mouse reaches toward the ground when lowered by the tail (also use a ruler) • Menace reflex Whether there is response when foreign object is brought near eyes • Nasal discharge Whether there is nasal discharge • Digestive/urogenital • Malocclusion Whether there are malocclusions or overgrown teeth • Rectal prolapse Whether there is protrusion of rectum • Vaginal/uterine/penile prolapse Check genitals • Diarrhea Check cage bedding • Respiratory • Breathing rate/depth Check for dyspnea, breath sounds (rales), tachypnea, • Discomfort • Mouse Grimace Scale Assess nose bulge, cheek bulge, ear angle, whisker change • Piloerection Whether there is stiff hair or bristling even when stroked • Other (compared to reference values) • Temperature Take average of two readings • Weight Measure weight
# as §1
# The above model mice were given 307.2 mg/kg/day of L-carbocysteine in drinking water for 23 weeks starting at the age of 49 weeks, and frailty index test was performed as in Example 2-5 above to confirm age-related frailty and the like.
# [4] = tested on: C2C12 cells; assay: Gene expression in cultured C2C12 cells, treated versus untreated; assay type: cell-based, mouse; conditions: treated vs untreated cells; Q<0.05; FIG. 13
# Protocol: C2C12 cells, which are derived from striated muscle of mice, were cultured and treated with ambroxol hydrochloride.
# [5] = tested on: aged mice; assay: Contextual fear conditional (CFC) test of fear memory; assay type: in vivo, mouse; conditions: 77-week-old aged mice after ambroxol hydrochloride administration; vs PBS; FIG. 8
# Protocol: Cognition and memory of the 77-week-old aged mice of Example 2-2 were evaluated by means of a contextual fear conditional (CFC) test. In the cognition and memory experiment, memory is evaluated in two ways: fear memory and spatial memory; fear memory is evaluated based on the time the subject freezes and stops moving after receiving an electric shock. […] Regarding spatial memory, when a mouse is placed on a white disk and a strong light is illuminated thereon, the mouse, which is nocturnal, will try to escape to a dark place. The disk has 20 holes, of which 19 are blocked and only one through which escape is possible. The mouse is then trained for six days to memorize the location of that one hole. The degree to which the mouse could remember the location of the hole was evaluated one day later and one week later (reference: https://www.nature.com/protocolexchange/protocols/349Reiserer).
# In this example, fear memory was evaluated using the CFC test. Fear memory was assessed by CFC after administration of ambroxol hydrochloride to 77-week-old, aged mice of Example 2-2.
# [6] = tested on: gene expression in (gastrocnemius or soleus) muscle; assay: Genetic analysis (RNA-seq) of muscle of administered aged mice; assay type: in vivo, mouse; conditions: FDR <0.05
# Text: The procedure and reagents used are as follows. The quality of all reads was checked using FastQC v0.11.8 and low-quality reads were removed using Trimmomatic (ver 0.38). LEADING: 20 (cut bases off the start of a read if quality score is less than 20), TRAILING: 20, SLIDING WINDOW: 4:15 (window size 4, average quality 15), MINLEN: 36 (drop reads if the length is less than […]) Each read obtained after filtering was mapped to the reference genome GRCm38 using STAR (ver2.7.0.f). Mapping was performed using the default values of STAR. Since the reads were paired-end with a length of 150 bp, a STAR index for reference genome GRCm38 was created in accordance with the length of 150 to perform mapping. Index generation was performed as follows: • Run Mode; genomeGenerate • Reference; GRCm38 • Annotation file; genecode version M24 • sjdbOverhang; 150 • alignment was performed using the index generated above. • Other than the foregoing, no options were added and the default values were used. • (Basic options were as follows.) • genomeDir; index generated above […] At this time, gene symbols as defined in genecode version M24 were counted. Regarding the calculated count numbers, genes with count data of 0 in all samples were filtered, TMM normalization was performed using edgeR (ver3.22.3), and correction between samples was performed. First, to obtain an overview of the data, principal component analysis and clustering analysis were performed using the count data after removing low-expressing genes. Expression changes of the specified patterns were compared based on the obtained expression values. edgeR was used to test for differentially expressed genes. […] Gene enrichment analysis was performed on the obtained variable genes using gprofiler2 (version 0.1.6). The expression values of the obtained differentially expressed genes were normalized, then extracted and visually depicted as a heat map to confirm the differential expressions. […] This analysis was performed using […] 1.8.0). In […], analysis was performed using a mouse database relating to 10 kbp upstream the TSS, stored in […]. Details of the analysis are as follows (cited from https://scenic.aertslab.org/tutorials/[…]). In the present example, gene regulation involved in the ambroxol hydrochloride of the present invention was investigated using model mice to identify genes useful for the diagnosis and treatment of sarcopenia, in the same manner as in Example 1. […] From the analysis of upstream transcription factors shown in FIG. 12, new transcription factors involved in differentiation and cellular senescence were observed as upstream factors.
# [7] = tested on: aged mice (C57BL/6J); assay: Treadmill test of muscle strength (endurance) in aged mice; assay type: in vivo, mouse; conditions: vs PBS
# Text: To confirm that muscle strength decline would be observed in model mice (C57BL/6J) (purchased from ORIENTAL YEAST), muscle strength (endurance) in 79-week-old aged mice was checked in a treadmill test as follows.
# Before recording performance, the mice were trained for three days so as to become familiarized with the equipment. An electrical stimulation grid was adjusted to 1 mA and the gradient was set to 15 degrees. On the first day of training, the mice were made to walk on the treadmill for 10 min at a speed of 10 m/min, rest for 10 min, and then walk for 10 min at a speed of 10 m/min. On the second and third days, the first two steps were performed under the same conditions as on the first day, after which walking was started at 10 m/min, and then increasing the speed by 1 m/min each minute up to a maximum speed of 20 m/min. Maximum exercise endurance was measured on the fourth day. Six mice were placed on the treadmill and the belt speed was started at 5 m/min for 5 min to warm up the mice. The speed was increased by 1 m/min to a maximum of 20 m/min. After 5 minutes of running, the speed was increased from 20 m/min to 21 m/min for 10 minutes. The mice were then forced to run at 22 m/min until they remained on the electrical stimulation grid for 10 seconds, and the distance they ran until they remained for 10 seconds was measured. […]
# [8] = tested on: aged mice; assay: Muscle mass in aged mice, with or without exercise; assay type: in vivo, mouse
# [9] = mice administered ambroxol hydrochloride, FIG. 9
# [10] = aged mice administered L-ethylcysteine hydrochloride, FIG. 2
smiles,measurement,setting,value
"Nc1c(Br)cc(Br)cc1CNC1CCC(O)CC1 (stereo not shown) [Ambroxol hydrochloride, ambroxol hydrochloride]",changes in body weight or behavioral abnormalities during administration,"[1]; oral 9.21 mg/kg/day, 50 to 77 weeks of age",no significant changes in body weight or behavioral abnormalities
same,muscle strength (grip strength),[2],improved
same,frailty index: coat condition,[3]; oral 1000 mg/kg/day from 50 to 81 weeks of age,improved
same,"frailty index: skin condition (hair, skin)","[3]; oral 1000 mg/kg/day from 50 to 81 weeks of age, FIG. 18",improved
same,frailty index: osteoporosis (physical/musculoskeletal),"[3]; oral 1000 mg/kg/day from 50 to 81 weeks of age, FIG. 20",improved
same,number of genes with decreased expression in C2C12 cells,[4],54 genes
same,number of genes with increased expression in C2C12 cells,[4],53 genes
same,CFC Freezing scores / cognitive performance,[5],improved CFC Freezing scores and increased cognitive performance
same,number of genes with decreased expression in muscle,[6]; [9],204 genes
same,number of genes with increased expression in muscle,[6]; [9],164 genes
same,muscle strength (endurance) by treadmill test,"[7]; oral 9.21 mg/kg/day from 50 to 77 weeks of age, measured at 77 weeks, FIG. 7",increase in muscle strength
N[C@@H](CSCC(=O)O)C(=O)O [L-carbocysteine],frailty index: dermatitis,[3]; 307.2 mg/kg/day in drinking water for 23 weeks from 49 weeks of age,improves
same,frailty index: alopecia,"[3]; 307.2 mg/kg/day in drinking water for 23 weeks from 49 weeks of age, FIG. 22",improves
same,frailty index: fur color loss (gray hair),"[3]; 307.2 mg/kg/day in drinking water for 23 weeks from 49 weeks of age, FIG. 23",improves
same,frailty index: physical condition score (bone and muscle),"[3]; 307.2 mg/kg/day in drinking water for 23 weeks from 49 weeks of age, FIG. 25",improvement in physical condition
same,total score of the frailty index test,"[3]; 307.2 mg/kg/day in drinking water for 23 weeks from 49 weeks of age, FIG. 26",improvement in the total value
CCOC(=O)[C@@H](N)CS [L-ethylcysteine hydrochloride],muscle mass in aged mice,[8]; administration alone,increased muscle mass
same,muscle mass in aged mice,[8]; administration in combination with exercise,significantly restored muscle mass
same,changes in body weight or behavioral abnormalities during administration,"[1]; oral 1000 mg/kg/day, 40 to 79 weeks of age",no significant changes in body weight or behavioral abnormalities
same,number of genes with decreased expression in muscle,[6]; [10],92 genes
same,number of genes with increased expression in muscle,[6]; [10],158 genes
same,muscle strength (endurance) by treadmill test,"[7]; oral 1000 mg/kg/day from 40 to 79 weeks of age, measured at 79 weeks, FIG. 1",increase in muscle strength
